Laboratory results taken from patent publication US7723075B2, “Methods of screening for TRPM5 modulators” (The Queens's Medical Center, priority 2003, dated 2010).
pEC50, pIC50: −log10 of the molar value. Each block holds one molecule with its values, some of them ahead of it.

How the values were obtained:
TRPM5 [1] = target: T1, TRPM5 (Homo sapiens, UniProt Q9NZQ8); experiment: Combined patch-clamp and fura-2 recordings of TRPM5 currents after Ca2+ release, [Ca2+]i not buffered; format: cell-based
T1 construct: Human TRPM5 cDNA containing the complete ORF of the long splice version; expressed in transfected cells
T1 sequence (Q9NZQ8 1-1165): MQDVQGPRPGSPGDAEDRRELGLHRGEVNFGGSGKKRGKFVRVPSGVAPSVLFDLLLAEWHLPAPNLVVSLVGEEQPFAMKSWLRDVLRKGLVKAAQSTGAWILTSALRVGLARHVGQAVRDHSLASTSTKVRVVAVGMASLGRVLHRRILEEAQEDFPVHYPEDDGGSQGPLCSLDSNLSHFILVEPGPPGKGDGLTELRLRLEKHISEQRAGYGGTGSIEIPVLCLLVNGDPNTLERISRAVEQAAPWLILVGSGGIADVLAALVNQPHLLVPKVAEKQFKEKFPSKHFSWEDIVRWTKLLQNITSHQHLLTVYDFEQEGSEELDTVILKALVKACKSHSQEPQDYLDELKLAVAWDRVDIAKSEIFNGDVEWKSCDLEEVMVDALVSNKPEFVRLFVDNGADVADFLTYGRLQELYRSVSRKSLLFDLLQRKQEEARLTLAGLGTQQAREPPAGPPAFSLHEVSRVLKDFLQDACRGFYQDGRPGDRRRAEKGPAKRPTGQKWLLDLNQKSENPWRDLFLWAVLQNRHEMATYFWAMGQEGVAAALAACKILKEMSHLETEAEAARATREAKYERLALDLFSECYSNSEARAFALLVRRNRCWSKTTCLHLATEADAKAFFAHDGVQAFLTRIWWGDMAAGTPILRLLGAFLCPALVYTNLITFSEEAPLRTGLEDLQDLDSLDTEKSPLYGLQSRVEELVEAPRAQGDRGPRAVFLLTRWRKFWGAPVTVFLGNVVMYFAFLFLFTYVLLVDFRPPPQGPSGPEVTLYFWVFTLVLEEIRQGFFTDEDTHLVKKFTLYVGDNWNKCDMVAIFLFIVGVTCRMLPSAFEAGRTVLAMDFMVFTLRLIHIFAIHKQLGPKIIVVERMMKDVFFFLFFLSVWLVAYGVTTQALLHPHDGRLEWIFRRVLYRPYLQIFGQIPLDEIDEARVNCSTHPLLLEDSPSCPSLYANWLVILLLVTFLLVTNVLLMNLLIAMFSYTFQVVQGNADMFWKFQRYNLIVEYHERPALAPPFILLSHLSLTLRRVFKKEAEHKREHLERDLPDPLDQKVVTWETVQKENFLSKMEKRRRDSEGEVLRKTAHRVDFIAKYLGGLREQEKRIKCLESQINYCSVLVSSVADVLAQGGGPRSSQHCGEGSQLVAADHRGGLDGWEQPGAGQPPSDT
Excerpt: (§1) Cells grown on glass coverslips were transferred to the recording chamber and kept in a standard modified Ringer's solution of the following composition (in mM): NaCl 140, KCl 2.8, CaC12 1, MgC12 2, glucose 10, Hepes.NaOH 10, pH 7.2, with osmolarity typically ranging from 298-308 mOsm. Intracellular pipette-filling solutions contained (in MM): K-glutamate 120, NaCl 8, MgC12 1, K-BAPTA 10, HEPES.CsOH, pH 7.2 adjusted with KOH. In order to adjust free [Ca^2+]i, to the desired concentration appropriate amounts of CaC12 were added as calculated with WebMaxC v2.1 (available through Stanford University). In the case of fura-2 measurements intracellular K-BAPTA was replaced by 200 μM fura-2. Fura-2 is a calcium indicator (Handbook of Fluorescent Probes and Research Chemicals, 9th ed. Molecular Probes). […]
(§2) The cytosolic calcium concentration was monitored at a rate of 5 Hz with a photomultiplier-based system using a monochromatic light source tuned to excite fura-2 fluorescence at 360 and 390 nm for 20 ms each (TILL Photonics, Munich, Germany). Emission was detected at 450-550 run with a photomultiplier, whose analog signals were sampled and processed by X-Chart software (HEKA, Lambrecht, Germany). Fluorescence ratios were translated into free intracellular calcium concentration based on calibration parameters derived from patch-clamp experiments with calibrated calcium concentrations. […]

HEK-293 cells = experiment: fura-2 measurement of [Ca2+]i in TRPM5-expressing HEK-293 cells; format: cell-based, human; conditions: thrombin 20 U/ml, n=5
Excerpt: as §1, §2

TRPM5 [2] = target: T1, TRPM5; experiment: Whole-cell patch-clamp of TRPM5 currents in HEK-293 cells stably expressing TRPM5, [Ca2+]i buffered in pipette; format: cell-based; conditions: for Hill coefficient, inhibition of TRPM5: fit to inhibitory phase
Excerpt: Cells grown on glass coverslips were transferred to the recording chamber and kept in a standard modified Ringer's solution of the following composition (in mM): NaCl 140, KCl 2.8, CaC12 1, MgC12 2, glucose 10, Hepes.NaOH 10, pH 7.2, with osmolarity typically ranging from 298-308 mOsm. Intracellular pipette-filling solutions contained (in MM): K-glutamate 120, NaCl 8, MgC12 1, K-BAPTA 10, HEPES.CsOH, pH 7.2 adjusted with KOH. In order to adjust free [Ca^2+]i, to the desired concentration appropriate amounts of CaC12 were added as calculated with WebMaxC v2.1 (available through Stanford University). In the case of fura-2 measurements intracellular K-BAPTA was replaced by 200 μM fura-2. Fura-2 is a calcium indicator (Handbook of Fluorescent Probes and Research Chemicals, 9th ed. Molecular Probes). Solution changes were performed by pressure ejection from a wide-tipped pipette. Thrombin (NaCl-based buffer) was purchased from Sigma.
Cells expressing TRPM5 were prepared as in Example 1. The cells were perfused with an internal solution in which the free Ca^2+ concentration was buffered to 500 nM with an appropriate mixture of BAPTA and CaC12. […] The activation kinetics of TRPM5 currents under these experimental conditions is characterized by a half-time to peak of −3 s, with the peak current itself at −10 s. The current inactivates similarly rapidly to basal levels with a half-time of —13 s.
(§3) Patch-clamp experiments were performed in the tight-seal whole-cell configuration at 21-25° C. High-resolution current recordings were acquired by a computer-based patch-clamp amplifier system (EPC-9, HEKA, Lambrecht, Germany). Patch pipettes had resistances between 2-4 MS2 after filling with the standard intracellular solution. Immediately following establishment of the whole-cell configuration, voltage ramps of 50 ms duration spanning the voltage range of −100 to +100 mV were delivered from a holding potential of 0 mV at a rate of 0.5 Hz over a period of 300 to 600 seconds. All voltages were corrected for a liquid junction potential of 10 mV between external and internal solutions when using glutamate as intracellular anion. Currents were filtered at 2.9 kHz and digitized at […] intervals. Capacitive currents and series resistance were determined and corrected before each voltage ramp using the automatic capacitance compensation of the EPC-9. The low-resolution temporal development of membrane currents was assessed by extracting the current amplitude at −80 and +80 mV from individual ramp current records. Where applicable, statistical errors of averaged data are given as means±S.E.M. with n determinations and statistical significance was assessed by Student's t-test. For single channel measurements inside-out patches were pulled into a modified standard external solution that contained no Ca^2+ and had 1 mM Na-EDTA. To record single channels a ramp protocol of 4.5 s from −100 mV to +100 mV and digitized at […] was given with no wait time in between ramps. Ramps that had no channel activity during Ca^2+ application were used for leak correction and subtracted form all ramps acquired. Data collection was at 2.9 kHz filter setting and digitally filtered at 50 Hz for display purposes.

TRPM4 = TRPM4 (Homo sapiens, UniProt Q8TD43); experiment: Dose-dependence of TRPM4 currents evoked by intracellular [Ca2+]i; format: cell-based
Chain of TRPM4 (Q8TD43 whole entry, the tested form may be a part): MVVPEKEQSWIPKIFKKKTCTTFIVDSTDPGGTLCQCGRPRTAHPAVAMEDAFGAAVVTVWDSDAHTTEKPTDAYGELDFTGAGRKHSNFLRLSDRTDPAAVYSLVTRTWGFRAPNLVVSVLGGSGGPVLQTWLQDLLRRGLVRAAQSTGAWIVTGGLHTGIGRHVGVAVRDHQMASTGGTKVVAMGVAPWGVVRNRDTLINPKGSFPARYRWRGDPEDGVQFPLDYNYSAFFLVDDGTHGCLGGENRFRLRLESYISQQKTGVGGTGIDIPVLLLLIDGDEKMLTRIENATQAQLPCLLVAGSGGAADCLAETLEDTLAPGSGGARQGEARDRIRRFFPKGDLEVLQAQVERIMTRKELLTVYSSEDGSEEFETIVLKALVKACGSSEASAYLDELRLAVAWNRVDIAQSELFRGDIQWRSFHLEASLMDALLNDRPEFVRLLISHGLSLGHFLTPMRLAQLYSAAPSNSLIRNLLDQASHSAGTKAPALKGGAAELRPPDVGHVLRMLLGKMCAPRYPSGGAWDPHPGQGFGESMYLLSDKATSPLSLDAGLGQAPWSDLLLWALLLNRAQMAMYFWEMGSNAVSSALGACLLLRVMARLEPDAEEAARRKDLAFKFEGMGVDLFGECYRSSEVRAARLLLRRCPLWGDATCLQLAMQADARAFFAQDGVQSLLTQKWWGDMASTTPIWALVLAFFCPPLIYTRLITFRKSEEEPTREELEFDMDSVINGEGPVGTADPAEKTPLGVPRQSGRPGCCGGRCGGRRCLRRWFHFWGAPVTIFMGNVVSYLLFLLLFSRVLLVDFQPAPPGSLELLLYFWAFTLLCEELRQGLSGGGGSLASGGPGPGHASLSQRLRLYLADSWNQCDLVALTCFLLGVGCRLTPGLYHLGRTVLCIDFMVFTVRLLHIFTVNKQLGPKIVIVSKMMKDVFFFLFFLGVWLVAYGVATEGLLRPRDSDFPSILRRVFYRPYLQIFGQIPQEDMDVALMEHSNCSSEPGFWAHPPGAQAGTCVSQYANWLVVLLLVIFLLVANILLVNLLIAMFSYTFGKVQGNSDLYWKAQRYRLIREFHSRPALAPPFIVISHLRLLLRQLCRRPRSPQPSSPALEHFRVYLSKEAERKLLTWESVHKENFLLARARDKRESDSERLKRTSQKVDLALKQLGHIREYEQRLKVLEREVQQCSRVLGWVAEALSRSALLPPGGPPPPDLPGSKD

[3] = test system: endogenous TRPM5-like currents in INS-1 cells; experiment: Whole-cell currents in INS-1 beta cells perfused with defined [Ca2+]i; format: cell-based, rat
Method: as §3
TRPM5 is found in another beta cell line, INS-1 (FIG. 5B). The INS-1 line was used to assess the electrophysiological features of TRPM5 in a native cellular context. Since the pancreatic beta-cell line INS-1 expressed TRPM5, the native TRPM5 currents in these cells was studied using the same experimental protocols that activated TRPM5 in the heterologous HEK-293 expression system (Examples 1-3). FIG. 5C illustrates that perfusing INS-1 cells with an intracellular solution that contained elevated levels of Ca^2+ (800 nM) induced a transient current, whose current-voltage relationship (FIG. 5D) was outwardly rectifying and closely resembled the current-voltage characteristics obtained for TRPM5 in the transfected HEK-293 cells. […]

TRPM5 single channels = target: T2, TRPM5 single channels (Homo sapiens, UniProt Q9NZQ8); experiment: Single-channel recordings in inside-out patches from HEK-293 cells stably expressing TRPM5; format: biochemical; conditions: cytosolic side exposed to 300 nM Ca2+, n=5
T2 construct: Human TRPM5 cDNA containing the complete ORF of the long splice version; expressed in transfected cells
T2 sequence (Q9NZQ8 1-1165): T1 sequence (Q9NZQ8 1-1165)
Excerpt: FIG. 4A depicts studies in which the inside-out patches were pulled from HEK-293 cells stably expressing TRPM5 channels. To record single channels a ramp protocol of 4.5 s from −100 mV to +100 mV was given with no wait time in between ramps. Ramps that had no channel activity during Ca^2+ application ere used for leak correction. Data were acquired at 2.9 kHz filter setting and digitally filtered at 50 Hz for display purposes. […] The last panel is an example 1 s after stop of application and removal of Ca^2+. This patch had at least 7 channels. […] Records are representative of all 5 patches recorded this way. […]
Patch-clamp experiments were performed in the tight-seal whole-cell configuration at 21-25° C. […] Capacitive currents and series resistance were determined and corrected before each voltage ramp using the automatic capacitance compensation of the EPC-9. The low-resolution temporal development of membrane currents was assessed by extracting the current amplitude at −80 and +80 mV from individual ramp current records. Where applicable, statistical errors of averaged data are given as means±S.E.M. with n determinations and statistical significance was assessed by Student's t-test. […]
The single-channel properties of TRPM5 were analyzed in cell-free excised membrane patches in the inside-out configuration of the patch-clamp technique. […]

Molecule: Thrombin
TRPM5 currents at +80 and −80 mV on thrombin stimulation (TRPM5 [1]; thrombin 20 U/ml, n=5): transient increase in inward and outward currents | [Ca2+]i signal on thrombin stimulation (HEK-293 cells): large Ca^2+-release transient

effect on TRPM5 activation by thrombin (TRPM5 [1]; 10 mM BAPTA in the pipette solution, n=6, data not shown): consistently suppressed TRPM5 activation
Molecule: O=C([O-])CN(CC(=O)[O-])c1ccccc1OCCOc1ccccc1N(CC(=O)[O-])CC(=O)[O-].[K+].[K+].[K+].[K+] [BAPTA]

average peak amplitude of TRPM5 inward currents (TRPM5 [2]; at −80 mV, [Ca2+]i of 1 μM, n=5): −440 pA | Hill coefficient, inhibition of TRPM5 (TRPM5 [2]): −6 | Hill coefficient, inhibition of TRPM5 (TRPM5 [2]; listed as [Ca2+]i): 6 | Hill coefficient, activation of TRPM5 (TRPM5 [2]; fit to rising phase): 4 | pEC50 (TRPM5 [2]; whole-cell, HEK-293 expressing TRPM5, n=5-20, read-out: EC50 for activation of TRPM5 currents (rising phase)): 6.07 | pIC50 (TRPM5 [2]; whole-cell, HEK-293 expressing TRPM5, n=5-20, read-out: IC50 of the inhibitory phase of TRPM5 currents): 5.96
Molecule: [Ca+2] [[Ca^2+]i]
pEC50 (TRPM4; data re-calculated by WebmaxC): 6.05 | Hill coefficient, TRPM4 currents (TRPM4; data re-calculated by WebmaxC): 3.6 | inhibition of TRPM4 activity at high [Ca2+]i (TRPM4; levels up to 1.3 μM, Ref. 9 and data not shown): without signs of inhibition | activation of endogenous TRPM5-like currents ([3]; 100 nM [Ca2+]i, n=3): neither 100 nM (n=3) nor 300 nM (n=3) activated any currents | activation of endogenous TRPM5-like currents ([3]; 300 nM [Ca2+]i, n=3): neither 100 nM (n=3) nor 300 nM (n=3) activated any currents | activation of endogenous TRPM5-like currents ([3]; 500 nM [Ca2+]i, n=3): a distinctive, transient TRPM5-like current was activated | activation of endogenous TRPM5-like currents ([3]; 800 nM [Ca2+]i, n=8): a distinctive, transient TRPM5-like current was activated | TRPM5 single-channel activity in inside-out patch (TRPM5 single channels): activity of multiple channels was observed
